Assay: Phase (ii) testing: UV irradiation of drug with photoinitiator (radical generation), drug recovery by HPLC
Type: physicochemical
Conditions: sensitive = degrades more than 5% with radical generation at 12 J/cm^2
Source text: As used herein, the term sensitive pharmaceutical compounds is to be interpreted as compounds that degrade for more than 5% in an environment with radical generation at 12 J/cm^2 irradiation. More in particular, the pharmaceutical can be sensitive during polymerisation that can be initiated with UV or visible light (200-700 nm) or with electron beam or gamma radiation, and without or up to 10% radical generating species (initiator) present. If an initiator is present, it is preferably about 1-10 wt % of a photoinitiator. In addition to photoinitiators, the system may comprise also a thermal initiator (for example peroxide and/or redox initiators). Preferably a radiation sensitive (photo)initiator is used, for example a Norrish Type I or Type II initiator. It is possible to work in the absence of these radical generating species where electron beam or gamma radiation is used or in the case where unsaturated compounds (one compound whose double bond is electron rich and another compound whose double bond is electron poor) react with each other via a donor-acceptor complex to form a polymer.
Potential degradation can be measured by dissolving 100 ppm (0.1 g/l) pharmaceutical compound in a suitable solvent in a quartz, glass or HPLC vessel. One series of vessels is used as such. In a second series of vessels, the one or more initiators, preferably those used in the polymerization mixture, are added in the same amount as the pharmaceutical compound. Next, the vessels are subjected to irradiation at 2 and 12 J/cm^2. As an example, UV radiation can be performed with a lab UV source Bluepoint 2, equipped with a D-bulb D65 and directed onto the sample by a UV light guide. The output from the guide is 200 mW/cm^2 (200 mJ/cm^2 per second) as measured with a Solascope 1 UV spectrometer. A dose of 2 and 12 J/cm^2 was achieved by irradiating 10 and 60 seconds, respectively. The choice of irradiation system could be governed by the applications or processing considerations that typically influence hardware use in a laboratory, hospital or manufacturing environment. […]
The recovery could be analysed by HPLC. […] UV spectra of the drugs before and after UV irradiation (at both 2 and 12 J/cm^2) had identical shapes, meaning that the HPLC method could be used to quantitatively measure changes in drug concentrations. Any degradation would be calculated as: minus the percentage of recovered API.
UV irradiation of drug-containing solutions (see below) was performed with a lab UV source Dr. Hoenle Bluepoint 2, equipped with a D-bulb, directed onto the (open) HPLC vials (2 ml) by a UV light guide (200 mW/cm^2; 200 mJ/cm^2 per second as measured with Solascope 1 UV emission spectrometer). […]

radical sensitivity in the current testing method | Structure (SMILES)
radical sensitive | CCCCc1oc2ccccc2c1C(=O)c1cc(I)c(OCCN(CC)CC)c(I)c1 [Amiodarone ®, Amiodarone]
radical sensitive | O=C(N[C@H](CO)[C@H](O)c1ccc([N+](=O)[O-])cc1)C(Cl)Cl [Chloroamphenicol]
radical sensitive | COc1cc2nc(N3CCN(C(=O)c4ccco4)CC3)nc(N)c2cc1OC [Prazosin ®, Prazosin]
radical sensitive | COc1cc2nc(N3CCN(C(=O)C4CCCO4)CC3)nc(N)c2cc1OC (stereo not shown) [Terazosin ®, Terazosin]

Source: patent US20100068252A1, “METHOD FOR PREPARING POLYMERIC MATRICES BY RADIATION IN THE PRESENCE OF SENSITIVE PHARMACEUTICAL COMPOUNDS” (DSM IP ASSETS B.V., priority 2006, published 2010)
